Data reported in paper PMC6758725, “Novel 4-arylaminoquinazolines bearing N,N-diethyl(aminoethyl)amino moiety with antitumour activity as EGFR^wt-TK inhibitor” (Journal of Enzyme Inhibition and Medicinal Chemistry, 2019).
Read-outs that look alike come from different tables or passages of the source.

Columns and labels:
A549 cells [1] = test: MTT antiproliferative assay, A549 cells; type: cell-based; conditions: Homo sapiens, read-out: IC50 (µM) A549
Procedure: (§1) Methyl thiazolyl tetrazolium (MTT) colorimetric assay (MTT assay)[17]^,[20] was used to evaluated the antiproliferative activities of these novel compounds against four human tumour cell lines including SW480, A549, A431 and NCI-H1975.
(§2) Figure 2. […] (A) SW480 cells, (B) A549 cells, (C) A431 cells, (D) NCI-H1975 cells. […] All error bars were represented in mean ± SE.
(§3) The effect of compounds on cell proliferation was determined using the MTT (3–(4,5-dimethylthiazol-2-yl)-2,5-diphenyltetrazolium bromide) method, which was carried out as previously described[12]^,[16].

NCI-H1975 cells = test: MTT antiproliferative assay, NCI-H1975 cells; type: cell-based; conditions: Homo sapiens, read-out: IC50 (µM) NCI-H1975
Procedure: as §1, §2, §3

SW480 cells = test: MTT antiproliferative assay, SW480 cells; type: cell-based; conditions: Homo sapiens, read-out: IC50 (µM) SW480
Procedure: as §1, §2, §3

A431 cells = test: MTT antiproliferative assay, A431 cells; type: cell-based; conditions: Homo sapiens, read-out: IC50 (µM) A431
Procedure: as §1, §2, §3

A549 cells [2] = test: Cell apoptosis analysis (Annexin V-FITC/PI, FACS); type: cell-based, human; conditions: for numbers of late apoptotic cells compared with control groups / numbers of necrosis cells compared with control groups: 48 h
Procedure: The process of controlled cellular death known as apoptosis has an important central role not only in normal homeostatic maintenance of tissues, but also in numerous diseases such as cancer, neurodegenerative, autoimmune, and cardiovascular diseases. After treatment by compound 6a for 48 h, the apoptosis of A549 cells were measured by fluorescence-activated cell sorter (FACS) analysis with annexin V-fluorescein isothiocyanate (FITC) and propidium iodide (PI) labelling.
Figure 4. Effect of compound 6a on cell apoptosis in A549 cells. (A) Representative density plots were obtained by FACS, (B) histograms of percentages of apoptotic cells in each group from (A) analysed by GraphPad Prism5.
(§4) Following treatment with different concentrations of compound 6a, the apoptosis of A549 cells was measured using Annexin V-FITC/PI apoptosis detection kit (KeyGEN BioTECH, Nanjing, China), according to the manufacturer’s instructions. Apoptosis of the treated cells was then detected by flow cytometry using ACEA NovoCyte.

A549 cells [3] = test: Cell cycle analysis (PI, flow cytometry); type: cell-based, human; conditions: 48 h; for percentage of cells in G0/G1 phase: untreated 51.97%
Description: Figure 5. Effect of compound 6a on the cell cycle phase distribution in A549 cells. (A) Representative profiles were obtained by FACS, (B) histograms of percentages of percentages of cell populations in the G0/G1, S and G2/M phase in each group from (A) analysed by GraphPad Prism5. […] Percentage of cells in G0/G1, S and G2/M phases were indicated. All values were expressed as mean ± SE. *p < .05, **p < .01 and ***p < .001 indicate significant differences compared with the control at the same phase.
as §4, with “distribution” for “apoptosis”, “cell cycle” for “A549 cells”, “cell cycle” for “Annexin V-FITC/PI apoptosis”, “The cell cycle” for “Apoptosis”

[4] = molecular target: wild type epidermal growth factor receptor tyrosine kinase (EGFR^wt-TK) (Homo sapiens, UniProt P00533); test: In vitro EGFR^wt tyrosine kinase ELISA assay
[5] = A549, MTT, 72 h of treatment, mean ± SD of at least three independent experiments
[6] = NCI-H1975, MTT, 72 h of treatment, mean ± SD of at least three independent experiments
[7] = SW480, MTT, 72 h of treatment, mean ± SD of at least three independent experiments
[8] = A-431, MTT, 72 h of treatment, mean ± SD of at least three independent experiments

Chain of wild type epidermal growth factor receptor tyrosine kinase (EGFR^wt-TK) (P00533 25-1210): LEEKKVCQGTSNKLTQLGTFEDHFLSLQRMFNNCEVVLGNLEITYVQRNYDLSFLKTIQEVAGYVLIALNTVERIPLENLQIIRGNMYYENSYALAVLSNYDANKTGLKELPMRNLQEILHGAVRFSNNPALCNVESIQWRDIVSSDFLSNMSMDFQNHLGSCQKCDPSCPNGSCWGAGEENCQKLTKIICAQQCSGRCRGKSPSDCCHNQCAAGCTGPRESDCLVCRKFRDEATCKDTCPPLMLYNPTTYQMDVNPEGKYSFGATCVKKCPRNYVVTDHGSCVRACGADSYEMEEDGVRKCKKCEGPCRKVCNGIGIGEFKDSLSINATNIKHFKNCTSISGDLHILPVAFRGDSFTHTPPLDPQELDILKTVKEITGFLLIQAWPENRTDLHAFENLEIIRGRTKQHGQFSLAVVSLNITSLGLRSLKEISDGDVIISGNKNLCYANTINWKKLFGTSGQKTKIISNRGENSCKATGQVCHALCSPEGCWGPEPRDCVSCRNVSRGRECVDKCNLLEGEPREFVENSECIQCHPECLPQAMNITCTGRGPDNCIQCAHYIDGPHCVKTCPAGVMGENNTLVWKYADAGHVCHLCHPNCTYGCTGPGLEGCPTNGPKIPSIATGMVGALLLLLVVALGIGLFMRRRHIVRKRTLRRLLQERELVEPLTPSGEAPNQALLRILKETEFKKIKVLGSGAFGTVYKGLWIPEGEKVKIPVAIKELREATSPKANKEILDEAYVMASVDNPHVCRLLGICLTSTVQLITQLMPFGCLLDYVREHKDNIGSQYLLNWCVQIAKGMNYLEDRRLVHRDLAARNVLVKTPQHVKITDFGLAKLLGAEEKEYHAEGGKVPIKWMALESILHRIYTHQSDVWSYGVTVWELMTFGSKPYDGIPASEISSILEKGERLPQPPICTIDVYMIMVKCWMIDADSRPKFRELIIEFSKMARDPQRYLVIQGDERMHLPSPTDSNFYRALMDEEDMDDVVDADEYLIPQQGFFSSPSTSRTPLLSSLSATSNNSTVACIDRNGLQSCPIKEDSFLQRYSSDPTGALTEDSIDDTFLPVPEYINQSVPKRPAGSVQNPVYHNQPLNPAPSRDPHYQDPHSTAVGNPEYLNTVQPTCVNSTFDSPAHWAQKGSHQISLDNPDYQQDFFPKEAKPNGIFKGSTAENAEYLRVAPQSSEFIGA

Structure (SMILES)	IC50 (A549 cells [1]; [5])	IC50 (NCI-H1975 cells; [6])	melting point	IC50 (SW480 cells; [7])	IC50 (A431 cells; [8])	numbers of late apoptotic cells compared with control groups (A549 cells [2]; A549, 20 µM)	numbers of necrosis cells compared with control groups (A549 cells [2]; A549, 20 µM)	further results
CCN(CC)CCNCc1ccc(-c2ccc3ncnc(Nc4ccc(F)c(Cl)c4)c3c2)o1 [Compound 6b, 4–(3-chloro-4-fluorophenylamino)-6-(5-((N,N-diethyl(aminoethyl))aminomethyl)furan-2-yl)quinazoline]	18 ± 0.62 µM	17.55 ± 0.03 µM	98.3 to 99.8 °C	14.9 ± 2.43 µM	3.92 ± 1.1 µM	–	–	–
CS(=O)(=O)CCNCc1ccc(-c2ccc3ncnc(Nc4ccc(OCc5cccc(F)c5)c(Cl)c4)c3c2)o1 [Lapatinib, reference compound]	–	–	–	–	–	significantly higher	significantly higher	IC50 (A549 cells [1]; A549, 72 h): 14.9 ± 1.21 µM; IC50 (NCI-H1975 cells; NCI-H1975, 72 h): 12.7 ± 0.73 µM; percentage of cells in G2/M phase (A549 cells [3]; A549, 20 µM, PI): 19.41%; percentage of cells in S phase (A549 cells [3]; A549, 20 µM, PI): 19.93%; IC50 (SW480 cells; SW480, 72 h): 12.6 ± 1.35 µM; IC50 (A431 cells; A-431, 72 h): 4.8 ± 0.71 µM
CCN(CC)CCNCc1ccc(-c2ccc3ncnc(Nc4ccc(OCc5cccc(F)c5)c(Cl)c4)c3c2)o1 [Compound 6a, 4–(3-chloro-4-(3-fluorobenzyloxy)phenylamino)-6–(5-((N,N-diethyl(aminoethyl))aminomethyl)furan-2-yl)quinazoline]	5.46 ± 0.19 µM	9.79 ± 0.07 µM	–	6.67 ± 0.95 µM	2.21 ± 0.25 µM	significantly higher	significantly higher	IC50 [4]: 0.0156 µM; numbers of late apoptotic cells compared with control groups (A549 cells [2]; A549, 10 µM): significantly higher; early apoptosis of A549 cells (A549 cells [2]; A549, 48 h, tested concentrations 20-2.5 µM, versus control): not significantly influenced; percentage of cells in G0/G1 phase (A549 cells [3]; A549, 2.5 µM, PI): 54.15%; percentage of cells in G0/G1 phase (A549 cells [3]; A549, 5 µM, PI): 55.44%; percentage of cells in G0/G1 phase (A549 cells [3]; A549, 10 µM, PI): 51.77%; percentage of cells in G0/G1 phase (A549 cells [3]; A549, 20 µM, PI): 62.45%; effect on cell cycle of A549 cells (A549 cells [3]; A549, 20, 10, 5 and 2.5 µM): arrested in the G0/G1 phase

Further lines, with some results ahead:

IC50 (A549 cells [1]; [5])	IC50 (NCI-H1975 cells; [6])	melting point	IC50 (SW480 cells; [7])	IC50 (A431 cells; [8])	Structure (SMILES)	numbers of late apoptotic cells compared with control groups (A549 cells [2]; A549, 20 µM)	numbers of necrosis cells compared with control groups (A549 cells [2]; A549, 20 µM)	further results
4.1 ± 0.66 µM	5.13 ± 0.55 µM	89.9 to 91.3 °C	4.21 ± 1.16 µM	2.09 ± 1.01 µM	C/C=C/c1ccc(Nc2ncnc3ccc(-c4ccc(CNCCN(CC)CC)o4)cc23)cc1 [Compound 6d, 6-(5-((N,N-diethylethyl)aminomethyl)furan-2-yl)-4–(4-(E)-(propen-1-yl)phenylamino)quinazoline]	–	–	–
12.1 ± 0.37 µM	15.6 ± 1.41 µM	81.4 to 82.3 °C	10.8 ± 1.34 µM	2.59 ± 0.15 µM	C#Cc1cccc(Nc2ncnc3ccc(-c4ccc(CNCCN(CC)CC)o4)cc23)c1 [Compound 6c, 4–(3-ethynylphenylamino)-6-(5-((N,N-diethyl(aminoethyl))aminomethyl)furan-2-yl)quinazoline]	–	–	–
